Results from ChEMBL document CHEMBL3885861, “Open TG-GATES”.

Organism: Rattus norvegicus
Experiment: Open TG-GATES - Regimen: Single
Format: toxicity, organism-based, Sprague-Dawley
Set-up: regimen Single, gender Male, age 6 weeks
Settings: in vivo, po, 3 mg/kg, route gavage, dose level Middle; for APTT / Bas / Eos / Fbg / Hb / Ht / Lym / MCH / MCHC / MCV / Mono / PT / Plat / RBC / Ret / WBC: tissue Blood; for KIDNEY_L / KIDNEY_R / KIDNEY_TOTAL: tissue Kidney; for LIVER: tissue Liver

C#C[C@]1(O)CC[C@H]2[C@@H]3CCc4cc(O)ccc4[C@H]3CC[C@@]21C [ETHINYL ESTRADIOL]
TERMINAL_BW (3 h): 198.2 g
APTT (3 h): 15.8 s
Bas (3 h): 0%
Eos (3 h): 1%
Fbg (3 h): 257.8 mg/dL
Hb (3 h): 12.9 g/dL
Ht (3 h): 39.4%
Lym (3 h): 75.8%
MCH (3 h): 21.4 pg
MCHC (3 h): 32.9%
MCV (3 h): 65 fL
Mono (3 h): 3.6%
PT (3 h): 12.2 s
Plat (3 h): 110.2 x10_4/uL
RBC (3 h): 607 x10_4/ul
Ret (3 h): 10.6%
WBC (3 h): 86.9 x10_2/uL
KIDNEY_L (3 h): 0.8 g
KIDNEY_R (3 h): 0.8 g
KIDNEY_TOTAL (3 h): 1.7 g
LIVER (3 h): 8.5 g
ALP (3 h, tissue Plasma): 1631.6 IU/L
ALT (3 h, tissue Plasma): 47.8 IU/L
AST (3 h, tissue Plasma): 80.2 IU/L
BUN (3 h, tissue Plasma): 10.2 mg/dL
CRE (3 h, tissue Plasma): 0.2 mg/dL
Cl (3 h, tissue Plasma): 106.8 meq/L
GLC (3 h, tissue Plasma): 183.4 mg/dL
IP (3 h, tissue Plasma): 9.2 mg/dL
K (3 h, tissue Plasma): 3.8 meq/L
LDH (3 h, tissue Plasma): 49.2 IU/L
PL (3 h, tissue Plasma): 142.6 mg/dL
RALB (3 h, tissue Plasma): 2.5 g/dL
TBIL (3 h, tissue Plasma): 0.038 mg/dL
TC (3 h, tissue Plasma): 75.4 mg/dL
TP (3 h, tissue Plasma): 5.4 g/dL
gamma-GTP (3 h, tissue Plasma): 1.2 IU/L
TERMINAL_BW (6 h): 195.3 g
APTT (6 h): 14.7 s
Bas (6 h): 0.2%
Eos (6 h): 0.8%
Fbg (6 h): 292.8 mg/dL
Hb (6 h): 13 g/dL
Ht (6 h): 38.9%
Lym (6 h): 69.4%
MCH (6 h): 21.9 pg
MCHC (6 h): 33.4%
MCV (6 h): 65.5 fL
PT (6 h): 12.2 s
Plat (6 h): 115.2 x10_4/uL
RBC (6 h): 594.2 x10_4/ul
Ret (6 h): 9.8%
WBC (6 h): 98.2 x10_2/uL
KIDNEY_L (6 h): 0.9 g
KIDNEY_R (6 h): 0.9 g
KIDNEY_TOTAL (6 h): 1.7 g
LIVER (6 h): 8.1 g
ALP (6 h, tissue Plasma): 1993.6 IU/L
ALT (6 h, tissue Plasma): 54.6 IU/L
AST (6 h, tissue Plasma): 106.2 IU/L
BUN (6 h, tissue Plasma): 6.6 mg/dL
CRE (6 h, tissue Plasma): 0.2 mg/dL
Ca (6 h, tissue Plasma): 10.6 mg/dL
Cl (6 h, tissue Plasma): 110 meq/L
DBIL (6 h, tissue Plasma): 0.012 mg/dL
IP (6 h, tissue Plasma): 10.4 mg/dL
LDH (6 h, tissue Plasma): 44.6 IU/L
Na (6 h, tissue Plasma): 144.4 meq/L
PL (6 h, tissue Plasma): 106.4 mg/dL
RALB (6 h, tissue Plasma): 2.5 g/dL
TBIL (6 h, tissue Plasma): 0.038 mg/dL
TC (6 h, tissue Plasma): 51.8 mg/dL
TP (6 h, tissue Plasma): 5.4 g/dL
gamma-GTP (6 h, tissue Plasma): 1.2 IU/L
TERMINAL_BW (9 h): 196.1 g
APTT (9 h): 15.7 s
Bas (9 h): 0%
Eos (9 h): 1%
Fbg (9 h): 261.6 mg/dL
Hb (9 h): 12.8 g/dL
Ht (9 h): 37.6%
Lym (9 h): 72%
MCH (9 h): 22.3 pg
MCHC (9 h): 33.9%
MCV (9 h): 65.8 fL
Mono (9 h): 3%
PT (9 h): 12.7 s
Plat (9 h): 117.1 x10_4/uL
RBC (9 h): 572.4 x10_4/ul
Ret (9 h): 10.2%
WBC (9 h): 81.1 x10_2/uL
KIDNEY_L (9 h): 0.8 g
KIDNEY_R (9 h): 0.8 g
KIDNEY_TOTAL (9 h): 1.7 g
LIVER (9 h): 7.6 g
ALP (9 h, tissue Plasma): 1530.6 IU/L
ALT (9 h, tissue Plasma): 36.4 IU/L
AST (9 h, tissue Plasma): 72 IU/L
BUN (9 h, tissue Plasma): 9 mg/dL
CRE (9 h, tissue Plasma): 0.2 mg/dL
Ca (9 h, tissue Plasma): 10.4 mg/dL
Cl (9 h, tissue Plasma): 109.2 meq/L
DBIL (9 h, tissue Plasma): 0.012 mg/dL
IP (9 h, tissue Plasma): 10.4 mg/dL
K (9 h, tissue Plasma): 3.7 meq/L
LDH (9 h, tissue Plasma): 39.6 IU/L
Na (9 h, tissue Plasma): 145.4 meq/L
PL (9 h, tissue Plasma): 95.4 mg/dL
RALB (9 h, tissue Plasma): 2.6 g/dL
TBIL (9 h, tissue Plasma): 0.048 mg/dL
TC (9 h, tissue Plasma): 45.4 mg/dL
TP (9 h, tissue Plasma): 5.3 g/dL
gamma-GTP (9 h, tissue Plasma): 1 IU/L
TERMINAL_BW (24 h): 200 g
APTT (24 h): 18.1 s
Bas (24 h): 0%
Eos (24 h): 1%
Fbg (24 h): 220.8 mg/dL
Ht (24 h): 39%
Lym (24 h): 77.8%
MCH (24 h): 22 pg
MCHC (24 h): 34%
MCV (24 h): 64.6 fL
Mono (24 h): 4%
PT (24 h): 13.4 s
Plat (24 h): 110.4 x10_4/uL
RBC (24 h): 604.4 x10_4/ul
Ret (24 h): 8.1%
WBC (24 h): 92.7 x10_2/uL
KIDNEY_L (24 h): 0.9 g
KIDNEY_R (24 h): 0.9 g
KIDNEY_TOTAL (24 h): 1.8 g
LIVER (24 h): 9.6 g
ALP (24 h, tissue Plasma): 2004.2 IU/L
ALT (24 h, tissue Plasma): 43 IU/L
AST (24 h, tissue Plasma): 70.6 IU/L
BUN (24 h, tissue Plasma): 10.8 mg/dL
CRE (24 h, tissue Plasma): 0.2 mg/dL
Ca (24 h, tissue Plasma): 10.8 mg/dL
Cl (24 h, tissue Plasma): 106.4 meq/L
DBIL (24 h, tissue Plasma): 0.024 mg/dL
IP (24 h, tissue Plasma): 7 mg/dL
K (24 h, tissue Plasma): 4.3 meq/L
LDH (24 h, tissue Plasma): 62.8 IU/L
PL (24 h, tissue Plasma): 106.4 mg/dL
RALB (24 h, tissue Plasma): 2.5 g/dL
TBIL (24 h, tissue Plasma): 0.042 mg/dL
TC (24 h, tissue Plasma): 39 mg/dL
TP (24 h, tissue Plasma): 5.3 g/dL
